Measurements from patent US20030108490A1, “Method and test kit for avoiding long-term failures in root canal treatments” (priority 2000, published 2003).
Values joined by “and” are separate entries in the source; they are usually repeats but may differ in a detail not shown here. Equal entries are not always repeated. Where two headings read alike, the source gives them in different places.

What was measured:
MMP-8 = conditions: for MMP-8 detected in the root canals: pooled data
Source text: 10 patients (11 teeth), with noncontributory medical histories, suffering from apical periodontitis, were selected for the collection of the root canal exudate samples. […] The sample collection was done with the approval of Ethical Committee of Helsinki University Faculty of Medicine, and with the patient's informed consent. The samples were collected during three consecutive appointments with two-week intervals, during which the root canal treatment was completed.
Primary access to the pulp and root canals was made according to regular treatment protocol. The instrumentation of the root canal was started with size 20 or 25 ISO file. X-ray was taken to determine the preparation length. At that time point, a sterile paper point was inserted into the root canal up to the preparation length for two minutes to absorb exudate from the root canal and periapical lesion. The root canals were then instrumented according to standard root canal treatment protocol. Finally, CaOH2 paste was inserted into the canal, and the access cavity was sealed.
After two weeks the root canals were reopened. After quick drying of the canals, a sterile paper point was inserted into the canal for two min for the sample collection. If the canal appeared dry, a drop of sterile saline was inserted to allow the absorption of the sample into the paper point. The root canal was then rinsed, dried and CaOH2 paste was inserted into the canal. After two weeks the procedure for the sample collection was repeated, and the root canals were filled with gutta percha and sealer in normal fashion.
Concentration of MMP-8 in the samples was determined from the elution buffer by a time-resolved immunofluorescence assay as described previously (Hanemaaijer et al., 1997). The monoclonal MMP-8 specific 8708 and 8706 antibodies were used as a catching antibody and tracer antibody, respectively. The tracer antibody was labeled using europium chelate. The assay buffer contained 20 mM Tris-HCl, pH 7.5, 0.5 M NaCl, 5 mM CaCl2, 50 μM ZnCl2, 0.5% bovine serum albumin, 0.5% sodium azide, and 20 mg/l DTPA. Samples were diluted in assay buffer and incubated for one h, followed by incubation for one h with tracer antibody. Enhancement solution was added, and after 5 min fluorescence was measured using a 1234 Delfia Research Fluorometer (Wallac, Turku, Finland).
Kruskall-Wallis 1-way ANOVA was used to analyze the degree of difference in the MMP-8 levels between the different appointments within each sample site.

[1] = obturated after one week of intracanal disinfection; cited from earlier work
bacteria in the canals = conditions: after 1-2 week medication, in most cases; cited from earlier work

With `[Ca+2].[OH-].[OH-]` [Ca(OH)2, calcium hydroxide] the “levels of MMP-8 in the exudate” value (MMP-8; patients with initially high levels (over 1000 ng/ml), second appointment, after two weeks of treatment) was “undetectable levels”, the “MMP-8 detected in the root canals” value (MMP-8; necrotic teeth, after mechanical preparation and first local medication (2nd visit)) was “a relatively high amount of MMP-8 was detected” and the “MMP-8 detected in the root canals” value (MMP-8; after renewal of the local medication for fortnight (3rd visit)) was “no longer detected”. The “levels of MMP-8 in the root canal samples” value (MMP-8; two other patients with initial value of 0, second appointment) was 100 to 1000 ng/mL, the “teeth that failed to show any healing in the periapical lesion area after one year” value [1] was 26% and 24% and the “cultivable bacteria in the canals” value (bacteria in the canals) was “no cultivable bacteria”.
